Measured values published in US6911524B1 (priority 1999, dated 2005).
Bridge positions count the residues as written; N and C are the ends. Peptide text beside a SMILES is read from it.

Legend:
Type in all cases: cell-based
Escherichia coli D31 = experiment: Antibacterial assay, MBC determination; conditions: summary of table 1
Description: (§1) The minimum […] concentration (MBC) of the peptides was determined according to the protocol described by HANCOCK et al.
(§2) A series of successive doubling dilutions of the peptides, in an aqueous solution containing 0.01% of acetic acid and 0.2% of bovine serum albumin (BSA), is prepared.
(§3) 10 μl aliquots of each dilution are incubated in sterile 96-well polypropylene microtitration plates, in the presence of 100 μl of bacterial suspension at a starting optical density of A600=0.001, in MUELLER HINTON BROTH liquid medium. The incubation is carried out for 18 h at 37° C. with stirring, except in the case of the marine bacteria, for which the incubation is carried out 25° C. The MBC is determined by plating out, onto solid MUELLER HINTON AGAR medium, the content of the wells corresponding to the first 3 dilutions for which no bacterial growth is observed, and incubating at 37° C. for 18 hours. The lowest concentration of peptide which prevents any residual formation of colonies corresponds to the MBC.

Micrococcus luteus = experiment: Antibacterial assay, MBC determination; conditions: summary of table 1
Description: as §1, §2, §3

Perkinsus marinus = experiment: Antiprotozoan activity, parasite viability; conditions: Perkinsus marinus in seawater, 1 hour at room temperature, viability by acridine orange / ethidium bromide staining
Description: The oyster-parasite protozoan Perkinsus marinus is cultured in DMEM medium (GIBCO), according to the protocol described by GAUTHIER and VASTA [J. Invertebr. Pathol., 66, 156-168, (1995)].
10 μM of purified peptide are added to 4×10^4 P. marinus, in seawater (final volume 20 μl) . The mixture is incubated for 1 hour at room temperature. The viability of the parasites is estimated by staining with acridine orange and with ethidium bromide, as described by MORVAN et al. [J. Invertebr. Pathol., 69, 177-82 (1997)]. The maximum viability is evaluated, as a positive control, in samples to which the peptide has not been added.

Fusarium oxysporum = experiment: Antifungal activity, growth inhibition in liquid phase (MIC); conditions: summary of table 1
Description: The antifungal activity was determined by calculating the MIC (minimum inhibitory concentration) in a test of inhibition of Fusarium oxysporum growth in liquid phase, according to the protocol described by FELHBAUM et al. [J. Biol. Chem., 269: 33159-63, (1994)].
A series of successive doubling dilutions of the peptides is prepared as indicated above for determining the antibacterial activity.
80 μl of spores suspended (final concentration 10^4 spores/ml) in Potato Dextrose Broth medium (DIFCO) are added to 10 μl of peptide solution in sterile 96-well polypropylene microtitration plates. The final volume is adjusted to 100 μl by adding water. The growth inhibition is determined after incubation for 24 hours at 25° C. in the dark, by observation under a microscope and measurement of the increase in the OD600. The value of the MIC corresponds to a range (a-b) of peptide concentrations, in which (a) represents the highest concentration at which growth is observed, and (b) represents the lowest concentration which induces 100% growth inhibition.

CC(C)C[C@@H]1NC(=O)[C@H](CCCCN)NC(=O)CNC(=O)[C@H](CCCNC(=N)N)NC(=O)[C@H](Cc2c[nH]cn2)NC(=O)[C@H](CC(C)C)NC(=O)[C@H](CC(N)=O)NC(=O)[C@H](CCCNC(=N)N)NC(=O)[C@@H]2CSSC[C@H](NC(=O)[C@@H](NC(=O)[C@H](Cc3c[nH]cn3)NC(=O)[C@@H]3CCCN3C(=O)[C@@H](N)Cc3c[nH]cn3)C(C)C)C(=O)N[C@@H]([C@@H](C)O)C(=O)N[C@@H](CO)C(=O)N[C@@H](Cc3ccc(O)cc3)C(=O)N[C@@H](Cc3ccc(O)cc3)C(=O)N[C@H]3CSSC[C@H](NC1=O)C(=O)N[C@@H](Cc1ccccc1)C(=O)N[C@H]1CSSC[C@H](NC(=O)[C@H](Cc4ccccc4)NC(=O)[C@H](CCCCN)NC(=O)[C@H](CO)NC3=O)C(=O)NCC(=O)N[C@@H]([C@@H](C)O)C(=O)N[C@@H](C)C(=O)NCC(=O)N[C@@H](CSSC[C@@H](C(=O)N[C@@H](CO)C(=O)N[C@@H](CCCNC(=N)N)C(=O)O)NC(=O)[C@H](Cc3c[nH]cn3)NC(=O)[C@H](CC(C)C)NC1=O)C(=O)N[C@@H]([C@@H](C)O)C(=O)N[C@@H](CCCNC(=N)N)C(=O)N[C@@H](Cc1ccc(O)cc1)C(=O)NCC(=O)N2 [Myticin b] (H-HPHVCTSYYCSKFCGTAGCTRYGCRNLHRGKLCFCLHCSR-OH; disulfide 5-24, 10-33, 14-35, 19-38; N-terminus and C-terminus assumed)
Activity on Escherichia coli compared (in words) (Escherichia coli D31): more active than the Myticin a peptide | Activity on Micrococcus luteus (in words) (Micrococcus luteus): more active than the Myticin a peptide | Antiprotozoan activity (biological activity expressed in μM) (Perkinsus marinus): >20 μM | Activity on Fusarium oxysporum compared (in words) (Fusarium oxysporum): more active than the Myticin a peptide

CSCC[C@@H]1NC(=O)[C@H](CCCCN)NC(=O)CNC(=O)[C@@H]2CCCN2C(=O)[C@H](Cc2c[nH]cn2)NC(=O)[C@H](CC(C)C)NC(=O)[C@H](C(C)C)NC(=O)[C@H](CCCNC(=N)N)NC(=O)[C@@H]2CSSC[C@H](NC(=O)[C@H](C)NC(=O)[C@H](Cc3c[nH]cn3)NC(=O)[C@H](CO)NC(=O)[C@@H](N)Cc3c[nH]cn3)C(=O)N[C@@H]([C@@H](C)O)C(=O)N[C@@H](CO)C(=O)N[C@@H](Cc3ccc(O)cc3)C(=O)N[C@@H](Cc3c[nH]c4ccccc34)C(=O)N[C@H]3CSSC[C@H](NC1=O)C(=O)N[C@@H](C)C(=O)N[C@H]1CSSC[C@H](NC(=O)[C@H](Cc4ccccc4)NC(=O)[C@H](CCCCN)NC(=O)CNC3=O)C(=O)NCC(=O)N[C@@H]([C@@H](C)O)C(=O)N[C@@H](C)C(=O)N[C@@H](CO)C(=O)N[C@@H](CSSC[C@@H](C(=O)N[C@@H](CO)C(=O)N[C@@H](CCCNC(=N)N)C(=O)O)NC(=O)[C@H](Cc3c[nH]cn3)NC(=O)[C@H](C(C)C)NC1=O)C(=O)N[C@@H]([C@@H](C)O)C(=O)N[C@@H](Cc1c[nH]cn1)C(=O)N[C@@H](Cc1ccc(O)cc1)C(=O)N[C@@H](CC(C)C)C(=O)N2 [Myticin a] (H-HSHACTSYWCGKFCGTASCTHYLCRVLHPGKMCACVHCSR-OH; disulfide 5-24, 10-33, 14-35, 19-38; N-terminus and C-terminus assumed)
Antiprotozoan activity (biological activity expressed in μM) (Perkinsus marinus): >20 μM
